Test results published in ChEMBL document CHEMBL4665636, “Spirooxindole-pyrrolidine heterocyclic hybrids promotes apoptosis through activation of caspase-3” (Bioorg Med Chem, 2019).
Active and inactive are the calls of the source. The calls are words filed in the database; no cut-off is given here.

Legend:
A549 [1] = experiment: Induction of apoptosis in human A549 cells assessed as early apoptotic cells at IC50 measured after 48 hrs by annexicV-FITC/propidium iodide staining based flow cytometry analysis (reference value: 3.02 %); format: functional
A549 [2] = experiment: Induction of apoptosis in human A549 cells assessed as distribution of cleaved caspase 3 in cytoplasm at IC50 after 24 to 48 hrs by FITC staining based microscopy analysis; format: functional, cell-based; conditions: time hrs 24-48
A549 [3] = experiment: Induction of apoptosis in human A549 cells assessed as viable cells at IC50 measured after 24 hrs by annexicV-FITC/propidium iodide staining based flow cytometry analysis (reference value: 99.11 %); format: functional
A549 [4] = experiment: Induction of apoptosis in human A549 cells assessed as distribution of cleaved caspase 3 in nuclei at IC50 after 24 to 48 hrs by FITC staining based microscopy analysis; format: functional, cell-based; conditions: time hrs 24-48
A549 [5] = experiment: Induction of apoptosis in human A549 cells assessed as viable cells at IC50 measured after 48 hrs by annexicV-FITC/propidium iodide staining based flow cytometry analysis (reference value: 99.67 %); format: functional
Jurkat [6] = experiment: Antiproliferative activity against human Jurkat cells assessed as reduction in cell proliferation measured after 24 hrs by MTT assay; format: functional, cell-based
A549 [7] = experiment: Induction of apoptosis in human A549 cells assessed as necrotic cells at IC50 measured after 24 hrs by annexicV-FITC/propidium iodide staining based flow cytometry analysis (reference value: 0.23 %); format: functional
A549 [8] = experiment: Induction of apoptosis in human A549 cells assessed as effect on viable cells by measuring fluorescence intensity IC50 measured after 24 hrs by annexicV-FITC/propidium iodide staining based flow cytometry analysis (reference value: 96.25 %); format: functional
A549 [9] = experiment: Induction of apoptosis in human A549 cells at IC50 measured after 24 hrs by annexicV-FITC/propidium iodide staining based flow cytometry analysis (reference value: 3.63 %); format: functional
A549 [10] = experiment: Induction of apoptosis in human A549 cells assessed as early apoptotic cells at IC50 measured after 48 hrs by annexicV-FITC/propidium iodide staining based flow cytometry analysis (reference value: 0.33 %); format: functional
A549 [11] = experiment: Induction of apoptosis in human A549 cells assessed as late apoptotic cells at IC50 measured after 24 hrs by annexicV-FITC/propidium iodide staining based flow cytometry analysis (reference value: 0.5 %); format: functional
A549 [12] = experiment: Induction of apoptosis in human A549 cells assessed as viable cells by measuring fluorescence intensity at IC50 measured after 48 hrs by annexicV-FITC/propidium iodide staining based flow cytometry analysis (reference value: 96.89 %); format: functional
A549 [13] = experiment: Induction of apoptosis in human A549 cells assessed as late apoptotic cells at IC50 measured after 48 hrs by annexicV-FITC/propidium iodide staining based flow cytometry analysis (reference value: 0 %); format: functional
A549 [14] = experiment: Antiproliferative activity against human A549 cells assessed as reduction in cell proliferation measured after 48 hrs by MTT assay; format: functional, cell-based; conditions: A549, 48 h
Jurkat [15] = experiment: Antiproliferative activity against human Jurkat cells assessed as reduction in cell proliferation measured after 48 hrs by MTT assay; format: functional, cell-based
A549 [16] = experiment: Antiproliferative activity against human A549 cells assessed as reduction in cell proliferation measured after 24 hrs by MTT assay; format: functional, cell-based; conditions: A549, 24 h
A549 [17] = experiment: Induction of apoptosis in human A549 cells assessed as early apoptotic cells at IC50 measured after 24 hrs by annexicV-FITC/propidium iodide staining based flow cytometry analysis (reference value: 0.16 %); format: functional
A549 [18] = experiment: Induction of apoptosis in human A549 cells assessed as necrotic cells at IC50 measured after 48 hrs by annexicV-FITC/propidium iodide staining based flow cytometry analysis (reference value: 0 %); format: functional
[19] = Cytotoxicity against human MCF10 cells assessed as reduction in cell viability up to 200 uM measured up to 48 hrs by MTT assay; format: cell-based; conditions: mcf10, 48 h
[20] = Cytotoxicity against human PCS-130-010 cells assessed as reduction in cell viability up to 200 uM measured up to 48 hrs by MTT assay; format: cell-based; conditions: pcs-130-010, 48 h

Row | Structure (SMILES) | Activity (A549 [1]) | Activity (A549 [2]) | Activity (A549 [3]) | Activity (A549 [4]) | Activity (A549 [5]) | IC50 (Jurkat [6]) | Activity (A549 [7]) | Activity (A549 [8]) | Activity (A549 [9]) | Activity (A549 [10]) | Activity (A549 [11]) | Activity (A549 [12]) | Activity (A549 [13]) | IC50 (A549 [14]) | IC50 (Jurkat [15]) | IC50 (A549 [16]) | Activity (A549 [17]) | Activity (A549 [18]) | Activity [19] | Activity [20]
1 | CC[C@@]1(O)C(=O)OCc2c1cc1n(c2=O)Cc2cc3ccccc3nc2-1 [CAMPTOTHECIN] | 61.13% | Active | 54.71% | Active | 53.97% | 51.5 µM | 6.31% | 58.66% | 37.51% | 30.71% | 28.49% | 39.71% | 11.17% | 32.1 µM | 22 µM | 50.9 µM | 10.49% | 4.14% | – | –
2 | Cc1ccc(C2C([N+](=O)[O-])C(Cc3ccc(O)cc3)NC23C(=O)Nc2ccc(OC(F)(F)F)cc23)cc1 (centres undefined) | 70.35% | Active | 58.92% | Active | 34.83% | 52.8 µM | 0% | 38.62% | 63.87% | 24.18% | 9.63% | 29.53% | 17.79% | 29.6 µM | 42.9 µM | 38.7 µM | 31.45% | 23.2% | Non-Toxic | Non-Toxic
3 | O=C1Nc2ccccc2C12NC(Cc1ccc(O)cc1)C([N+](=O)[O-])C2c1ccccc1 (centres undefined) | – | – | – | – | – | 98.3 µM | – | – | – | – | – | – | – | 66.6 µM | 61.6 µM | 78.9 µM | – | – | Non-Toxic | Non-Toxic
4 | O=C1Nc2ccc(OC(F)(F)F)cc2C12NC(Cc1ccc(O)cc1)C([N+](=O)[O-])C2c1cccc([N+](=O)[O-])c1 (centres undefined) | – | – | – | – | – | 83.3 µM | – | – | – | – | – | – | – | 61.2 µM | 50.1 µM | 65 µM | – | – | Non-Toxic | Non-Toxic
5 | O=C1Nc2ccccc2C12NC(Cc1ccc(O)cc1)C([N+](=O)[O-])C2c1cccc([N+](=O)[O-])c1 (centres undefined) | – | – | – | – | – | 74.6 µM | – | – | – | – | – | – | – | 117 µM | 48.6 µM | 78.4 µM | – | – | Non-Toxic | Non-Toxic
6 | O=C1Nc2ccccc2C12NC(Cc1ccc(O)cc1)C([N+](=O)[O-])C2c1ccc(Cl)cc1 (centres undefined) | – | – | – | – | – | 77.8 µM | – | – | – | – | – | – | – | 59.2 µM | 51.5 µM | 74.4 µM | – | – | Non-Toxic | Non-Toxic
7 | O=C1Nc2ccccc2C12NC(Cc1ccc(O)cc1)C([N+](=O)[O-])C2c1ccc(Br)cc1 (centres undefined) | – | – | – | – | – | 73.4 µM | – | – | – | – | – | – | – | 39.4 µM | 43.2 µM | 59.1 µM | – | – | Non-Toxic | Non-Toxic
8 | O=C1Nc2ccc(OC(F)(F)F)cc2C12NC(Cc1ccc(O)cc1)C([N+](=O)[O-])C2c1ccc(Cl)cc1 (centres undefined) | – | – | – | – | – | 67.7 µM | – | – | – | – | – | – | – | 38.1 µM | 44.8 µM | 44.9 µM | – | – | Non-Toxic | Non-Toxic
9 | Cc1ccc(C2C([N+](=O)[O-])C(Cc3ccc(O)cc3)NC23C(=O)Nc2ccccc23)cc1 (centres undefined) | – | – | – | – | – | 114 µM | – | – | – | – | – | – | – | 56.7 µM | 47.8 µM | 106 µM | – | – | Non-Toxic | Non-Toxic
10 | O=C1Nc2ccc(OC(F)(F)F)cc2C12NC(Cc1ccc(O)cc1)C([N+](=O)[O-])C2c1ccc(Br)cc1 (centres undefined) | – | – | – | – | – | 67.2 µM | – | – | – | – | – | – | – | 37.2 µM | 44.1 µM | 51.4 µM | – | – | Non-Toxic | Non-Toxic
11 | O=C1Nc2ccc(OC(F)(F)F)cc2C12NC(Cc1ccc(O)cc1)C([N+](=O)[O-])C2c1ccccc1 (centres undefined) | – | – | – | – | – | 65.8 µM | – | – | – | – | – | – | – | 44.7 µM | 45 µM | 45.8 µM | – | – | Non-Toxic | Non-Toxic
12 | COc1ccc(C2C([N+](=O)[O-])C(Cc3ccc(O)cc3)NC23C(=O)Nc2ccccc23)cc1 (centres undefined) | – | – | – | – | – | 76.2 µM | – | – | – | – | – | – | – | 47.8 µM | 47.5 µM | 59.2 µM | – | – | Non-Toxic | Non-Toxic
13 | COc1ccc(C2C([N+](=O)[O-])C(Cc3ccc(O)cc3)NC23C(=O)Nc2ccc(OC(F)(F)F)cc23)cc1 (centres undefined) | – | – | – | – | – | 62.9 µM | – | – | – | – | – | – | – | 41.6 µM | 42 µM | 53.5 µM | – | – | Non-Toxic | Non-Toxic
